Source: paper PMC6020091 (Chemistry Central Journal, 2018)

Assays:
[1] = biological target: T1, AChE (acetylcholinesterase) (Electrophorus electricus, UniProt O42275); assay: colorimetric hydroxamic acid/FeCl3 assay of remaining ACh (Bonting and Featherstone), non-linear regression; format: biochemical
[2] = biological target: T1, AChE (acetylcholinesterase); assay: colorimetric hydroxamic acid/FeCl3 assay of remaining ACh (Bonting and Featherstone), enzyme kinetics with Lineweaver-Burk plot; format: biochemical

T1 sequence (O42275 24-633 limits assumed): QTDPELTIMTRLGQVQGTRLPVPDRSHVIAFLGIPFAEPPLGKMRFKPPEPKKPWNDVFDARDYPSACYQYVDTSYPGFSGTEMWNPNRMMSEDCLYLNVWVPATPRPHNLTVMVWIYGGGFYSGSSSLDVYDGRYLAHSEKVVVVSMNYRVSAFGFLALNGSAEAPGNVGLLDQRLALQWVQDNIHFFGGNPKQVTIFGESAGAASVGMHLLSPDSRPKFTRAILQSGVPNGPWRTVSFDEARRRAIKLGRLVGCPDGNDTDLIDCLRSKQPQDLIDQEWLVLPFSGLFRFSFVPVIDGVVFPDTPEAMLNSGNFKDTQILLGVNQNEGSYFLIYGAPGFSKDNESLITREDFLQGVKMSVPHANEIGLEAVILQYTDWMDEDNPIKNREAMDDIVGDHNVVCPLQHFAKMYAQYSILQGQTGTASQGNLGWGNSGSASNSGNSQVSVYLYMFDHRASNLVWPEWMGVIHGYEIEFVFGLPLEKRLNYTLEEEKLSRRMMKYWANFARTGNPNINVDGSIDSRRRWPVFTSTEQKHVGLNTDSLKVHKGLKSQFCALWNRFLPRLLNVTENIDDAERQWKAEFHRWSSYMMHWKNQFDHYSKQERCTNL

Compound | Ki [1] [µM] | Ki [2] [µM]
CN(C)C(=O)Oc1cccc([N+](C)(C)C)c1 [neostigmine] | 93 to 157 | –
COc1ccc(CCN2C(=O)c3ccccc3C2=O)cc1OC [compound 1] | – | 330 to 930
